We go through five molecules from patent US6060504A, “N-methyl-N-[(1S)-1-phenyl-2-(3S)-hydroxypyrrolidin-1-yl)ethyl]-2 -2-diphenylacetamide” (priority 1995, dated 2000).

Counter-ions that a name gives are not always drawn. Like-named read-outs stand apart in the source and are kept apart here.

Data set [1] is classed as physicochemical. The procedure:
In the case of these two types, not only their melting behavior differs but also their storage stabilities. […] During DSC determination (DSC=Differential Scanning Calorimetry)of the crystal form of type II, on slow heating above the melting point at approximately 200° C. the crystal type IV which melts at approximately 220-226° C. crystallizes out. Crystal type IV is also detected when a melt of type II (just above 200° C.) is suddenly cooled and stored at room temperature for a period of 12 to 16 hours. […] In contrast to this, however, by seeding with seed crystals of type […] the crystal form IV is especially obtained. Additionally, the solubility of the crystal type IV in aqueous solution is lower than that of type II.

A further data set is described as follows: Solubility in water. The note with it: at 20° C. Type of data set: physicochemical.
A short description of a further data set: Solubility in methanol. Format: physicochemical. Particulars: organic solvent or mixture, at 20° C.
Another data set can be described thus: pKa. Format: physicochemical.
Data set [2] can be described thus: Solubility of crystal types in aqueous solution. Format: physicochemical.
A further data set can be described thus: side effects. The note with it: in vivo.
Another data set concerns physical dependence. Kind of data set: physical dependence / dependence potential. Format: in vivo.
Data set [3] can be described thus: anti-inflammatory, diuretic, anticonvulsive and neuroprotective actions (familiar methods). The note with it: in vivo.
The test system of a further data set is writhing (pain). Nature of the data set: writhing test. The note with it: mice or rats. Format: in vivo. The text has this:
Experiments have shown that the compound according to the invention is active in the "writhing test" on mice or rats (method cf. Siegmund et al., Proc. Soc. Exp. Biol. 95, (1957), 729-731).
Background: Writhing tests count abdominal constrictions after an irritant is injected.

The subject of data set [4] is inflammation-related hyperalgesias. Kind of data set: analgesic action / inflammation-related hyperalgesias. The note with it: in vivo.
Another data set relates to burns. Nature of the data set: treatment of burns and sunburn. Format: in vivo. The note with it: heat, flames, severe sunburn.
Data set [5] concerns carrageenan-induced hyperalgesia. Kind of data set: carrageenan-induced hyperalgesia model. Type of data set: in vivo. Particulars: rats.
In data set [6] the test system is rheumatic disorders and back conditions. Kind of data set: treatment of rheumatic disorders and back conditions. Format: in vivo.
The test system of a further data set is kappa-receptors. Nature of the data set: binding to kappa-receptors.
Data set [7] is described as follows: pharmaceutical activity of crystal forms. Type of data set: in vivo.
For another data set, the system named is allergic skin reactions. Kind of data set: treatment of allergies to the sun. Format: in vivo.
Another data set relates to intestinal motility. Kind of data set: inflammatory bowel disorders / intestinal motility. Format: in vivo. Particulars: inflammatory bowel disorder.
Data set [8] in a line: blood-brain barrier passage. Particulars: due to its structure.
The subject of a further data set is neurodermatitis. Nature of the data set: treatment of neurodermatitis. Format: in vivo.
The mark [9] stands for this setting: listed as N-methyl-N-[(1S)-1-phenyl-2-((3S)-3-hydroxypyrrolidin-1-yl)ethyl]-2,2-diphenylac.

Consider `CN(C(=O)C(c1ccccc1)c1ccccc1)[C@H](CN1CC[C@H](O)C1)c1ccccc1` [type I, N-methyl-N-[(1S)-1-phenyl-2-((3S)-3-hydroxypyrrolidin-1-yl)ethyl]-2,2-diphenylacetamide], for which, in data set [1] (slow heating releases solvent), the “conversion of solvate type I” value is given as “readily converted into another crystal type”.
On to `CN(C(=O)C(c1ccccc1)c1ccccc1)[C@H](CN1CC[C@H](O)C1)c1ccccc1` [Comparison Example, N-methyl-N-[(1S)-1-phenyl-2-((3S)-3-hydroxypyrrolidin-1-yl)ethyl]-2.2-diphenylacetamide hydrochloride], for which, in [1], the “stability of crystal form” value is “metastable”. Also, the “storage at high humidity” value in data set [1] (atmospheric humidity approximately 73% to 95%) is on record as “A form designated as type III is obtained”. The “storage at 170° C.” value in data set [1] (drying oven at 170° C.) was “a partial conversion into type IV was detected”. Also, the “seven months' storage” value in [1] (seven months, room temperature) is listed as “a start of conversion to the thermostable crystal modification IV”. In addition, the solubility in “Solubility in water” amounted to 11600 µg/mL; in the data set “Solubility in methanol”, 63.1 mg/mL. Besides, the pKa in the data set “pKa” (read-out: pKa) amounted to 7.4.
On to `CN(C(=O)C(c1ccccc1)c1ccccc1)[C@H](CN1CC[C@H](O)C1)c1ccccc1.Cl` [Example 1, N-methyl-N-[(1S)-1-phenyl-2-((3S)-3-hydroxypyrrolidin-1-yl)ethyl]-2,2-diphenylacetamide hydrochloride], for which the figures for the solubility in the data set “Solubility in water” and in “Solubility in methanol” were 7600 µg/mL and 42.6 mg/mL, respectively. In the data set “pKa”, the pKa was 7.4. In addition, the “solubility of crystal type IV relative to the solubility of type II” value in [2] is reported as 45% to 70.
For `CN(C(=O)C(c1ccccc1)c1ccccc1)[C@H](CN1CC[C@H](O)C1)c1ccccc1` [compound according to the invention, N-methyl-N-[(1S)-1-phenyl-2-((3S)-3-hydroxypyrrolidin-1-yl)ethyl]-2,2-diphenylacetamide], in the data set “side effects”, the side effects entry is “no side effects have been found which would restrict the use”. In the data set “side effects” (setting [9]), the side effects entry was “without causing noticeable side effects”. In addition, the dependence potential entry with physical dependence (attributed to no blood-brain barrier passage) is reported as “no dependence potential”. In addition, the “tendency to physical dependence” value in the data set on physical dependence (in vivo) is on record as “no or only a small tendency to physical dependence”. For the same molecule, in [3], the anti-inflammatory action entry is “pronounced”, the anticonvulsive action entry is on record as “pronounced”, the diuretic action result is “pronounced” and the neuroprotective action result was “pronounced”. Besides, in the data set with writhing (pain), the “activity in the writhing test” value is recorded as “active”. Besides, in data set [4], the analgesic actions entry is “particularly good analgesic actions” and the “antagonism of inflammation-related hyperalgesias” value is on record as “antagonize”. Moreover, the treatment of burns entry in the data set with burns is “particularly suitable in the treatment of burns”. The “action in carrageenan-induced hyperalgesia model” value in [5] is on record as “Particularly strong actions”. Further, the “efficacy in rheumatic disorders and back conditions” value in data set [6] (in vivo) is reported as “particularly effective”. For the same molecule, in data set [6] (rheumatic disorders and back conditions), the “normal motility of the gastrointestinal tract” value was “not adversely affected”. In the data set on kappa-receptors, the affinity to kappa-receptors result was “high affinity”. The “dependence of pharmaceutical activity on crystal form” value in data set [7] (in vivo) is on record as “relatively independent of the crystal form”. In addition, in the data set on allergic skin reactions, the allergic skin reactions result was “allergic skin reactions rapidly fade” and the “itching, allergies to the sun” value is listed as “rapidly subsides”. In the data set on intestinal motility, the intestinal motility normalization result is reported as “suitable for normalizing disorders of the intestinal motility”. Also, in the data set on intestinal motility (setting [9]), the intestinal motility normalization result is listed as “normalizes the motility of the intestine or sets it in motion again”. In [8], the blood-brain barrier passage result was “cannot pass through the blood-brain barrier”. For the same molecule, in the data set on neurodermatitis, the “inflammatory reactions, neurodermatitis” value is on record as “favorably influenced” and the “itching, neurodermatitis” value is recorded as “the itching of the skin in this disorder subsides”.
Regarding `CN(C(=O)C(c1ccccc1)c1ccccc1)[C@H](CN1CC[C@H](O)C1)c1ccccc1.Cl` [N-methyl-N-[(1S)-1-phenyl-2-((3S)-3-hydroxypyrrolidin-1-yl)ethyl]-2,2-diphenylacetamide hydrochloride], the “effectiveness as medicament in all indication areas” value in data set [7] (all types of preparation forms) is given as “particularly effective”.

The term solubility denotes the concentration that dissolves in the medium under given conditions. For orientation: pKa means the pH at which an ionisable group is half protonated.
